{"source": "paper PMC2806265", "about": "“Divergence of allosteric effects of rapacuronium on binding and function of muscarinic receptors” (BMC Pharmacology, 2009)", "key": {"M2 muscarinic receptor [1]": {"biological_target": "T1, M2 muscarinic receptor (Homo sapiens, UniProt P08172)", "T1 sequence (P08172 1-466)": "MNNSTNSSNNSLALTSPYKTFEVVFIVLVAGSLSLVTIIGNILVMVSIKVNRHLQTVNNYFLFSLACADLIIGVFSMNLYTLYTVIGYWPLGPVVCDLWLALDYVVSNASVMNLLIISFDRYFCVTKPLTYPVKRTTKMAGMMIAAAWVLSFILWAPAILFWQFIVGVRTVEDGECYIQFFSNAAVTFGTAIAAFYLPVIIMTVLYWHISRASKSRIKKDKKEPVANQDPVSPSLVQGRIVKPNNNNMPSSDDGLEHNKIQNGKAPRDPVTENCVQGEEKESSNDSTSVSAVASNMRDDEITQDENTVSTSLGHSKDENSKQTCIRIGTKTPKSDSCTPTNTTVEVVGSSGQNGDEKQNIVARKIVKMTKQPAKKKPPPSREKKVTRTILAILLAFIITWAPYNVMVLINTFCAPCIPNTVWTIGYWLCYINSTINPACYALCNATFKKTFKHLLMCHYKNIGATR", "assay": "[3H]NMS saturation binding"}, "M2 muscarinic receptor [2]": {"biological_target": "T1, M2 muscarinic receptor", "assay": "Effect of rapacuronium on low-affinity ACh binding ([3H]NMS + GTPγS + ACh)", "design": "host or cells: CHO cells, stably transfected; membrane preparation", "text": "Data are expressed as percent of specific binding in the absence of rapacuronium. […] Data are means ± SE from 3 independent experiments performed in quadruplicates. Curves are fits of Eq. 3 (circles) and Eq. 4 (squares and triangles) to data prior to normalization."}, "M4 muscarinic receptor": {"biological_target": "T2, M4 muscarinic receptor (Homo sapiens, UniProt P08173)", "T2 sequence (P08173 1-479)": "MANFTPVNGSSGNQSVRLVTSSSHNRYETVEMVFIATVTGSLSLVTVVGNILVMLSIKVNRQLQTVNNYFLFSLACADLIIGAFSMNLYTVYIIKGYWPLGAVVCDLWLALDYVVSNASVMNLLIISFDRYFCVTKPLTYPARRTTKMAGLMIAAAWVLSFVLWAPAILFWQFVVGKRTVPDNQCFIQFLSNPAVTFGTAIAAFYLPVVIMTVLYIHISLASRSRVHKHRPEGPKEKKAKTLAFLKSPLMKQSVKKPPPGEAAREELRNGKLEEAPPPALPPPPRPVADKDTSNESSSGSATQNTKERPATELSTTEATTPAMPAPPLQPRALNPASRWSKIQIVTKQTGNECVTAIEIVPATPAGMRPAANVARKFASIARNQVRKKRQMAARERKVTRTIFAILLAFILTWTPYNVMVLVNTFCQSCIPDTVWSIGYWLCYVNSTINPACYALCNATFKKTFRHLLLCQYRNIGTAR", "assay": "Effect of rapacuronium on 1 nM [3H]NMS binding", "design": "host or cells: CHO cells, stably transfected; membranes", "text": "(§1) Cooperativity factor greater than 1 denotes negative cooperativity and less than 1 positive cooperativity. Due to its log-normal error distribution factors of cooperativity are expressed as negative logarithms (pα) through the manuscript so negative values denotes negative cooperativity and positive value denotes positive cooperativity."}, "M5 muscarinic receptor": {"biological_target": "T3, M5 muscarinic receptor (Homo sapiens, UniProt P08912)", "T3 sequence (P08912 1-532)": "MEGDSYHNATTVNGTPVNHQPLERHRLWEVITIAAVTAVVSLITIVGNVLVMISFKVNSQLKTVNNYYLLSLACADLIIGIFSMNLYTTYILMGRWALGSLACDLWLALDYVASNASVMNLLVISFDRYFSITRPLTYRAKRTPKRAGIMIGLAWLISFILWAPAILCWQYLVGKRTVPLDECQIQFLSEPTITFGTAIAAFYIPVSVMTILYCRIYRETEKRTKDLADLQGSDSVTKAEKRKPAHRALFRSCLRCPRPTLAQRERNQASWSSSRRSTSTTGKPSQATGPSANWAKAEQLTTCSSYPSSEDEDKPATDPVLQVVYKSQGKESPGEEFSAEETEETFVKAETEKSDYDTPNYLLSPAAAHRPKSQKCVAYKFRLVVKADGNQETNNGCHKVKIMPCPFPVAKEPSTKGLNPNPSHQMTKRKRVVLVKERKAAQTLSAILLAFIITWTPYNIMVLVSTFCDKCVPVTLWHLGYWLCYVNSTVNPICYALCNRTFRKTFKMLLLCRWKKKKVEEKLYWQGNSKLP", "assay": "Effect of rapacuronium on 1 nM [3H]NMS binding", "design": "host or cells: CHO cells, stably transfected; membranes", "text": "as §1"}, "M3 muscarinic receptor": {"biological_target": "T4, M3 muscarinic receptor (Homo sapiens, UniProt P20309)", "T4 construct": "host or cells: CHO cells, stably transfected; membranes", "T4 sequence (P20309 whole entry)": "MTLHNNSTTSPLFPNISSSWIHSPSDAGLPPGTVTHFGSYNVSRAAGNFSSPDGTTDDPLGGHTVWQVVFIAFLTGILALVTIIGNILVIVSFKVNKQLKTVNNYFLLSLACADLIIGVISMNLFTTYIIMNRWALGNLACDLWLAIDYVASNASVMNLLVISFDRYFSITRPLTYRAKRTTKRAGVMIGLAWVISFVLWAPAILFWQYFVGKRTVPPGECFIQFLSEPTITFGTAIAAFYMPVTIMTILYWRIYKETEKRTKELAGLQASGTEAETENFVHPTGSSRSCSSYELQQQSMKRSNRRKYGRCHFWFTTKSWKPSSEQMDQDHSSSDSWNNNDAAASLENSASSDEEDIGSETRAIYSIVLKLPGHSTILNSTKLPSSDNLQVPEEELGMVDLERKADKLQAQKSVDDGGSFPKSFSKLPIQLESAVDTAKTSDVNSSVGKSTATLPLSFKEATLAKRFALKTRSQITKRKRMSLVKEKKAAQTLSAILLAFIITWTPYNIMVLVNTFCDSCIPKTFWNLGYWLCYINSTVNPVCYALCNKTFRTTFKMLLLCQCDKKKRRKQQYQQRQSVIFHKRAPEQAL", "type": "biochemical", "settings": "CHO-M3 membranes", "text": "Time course of association(6) [drawing 6]\ny, radioligand binding at time x; kobs, observed rate of association; equilibrium binding Beq = Bottom + Span."}, "M1 muscarinic receptor": {"biological_target": "T5, M1 muscarinic receptor (Homo sapiens, UniProt P11229)", "T5 construct": "host or cells: CHO cells, stably transfected; membrane preparation", "T5 sequence (P11229 1-460)": "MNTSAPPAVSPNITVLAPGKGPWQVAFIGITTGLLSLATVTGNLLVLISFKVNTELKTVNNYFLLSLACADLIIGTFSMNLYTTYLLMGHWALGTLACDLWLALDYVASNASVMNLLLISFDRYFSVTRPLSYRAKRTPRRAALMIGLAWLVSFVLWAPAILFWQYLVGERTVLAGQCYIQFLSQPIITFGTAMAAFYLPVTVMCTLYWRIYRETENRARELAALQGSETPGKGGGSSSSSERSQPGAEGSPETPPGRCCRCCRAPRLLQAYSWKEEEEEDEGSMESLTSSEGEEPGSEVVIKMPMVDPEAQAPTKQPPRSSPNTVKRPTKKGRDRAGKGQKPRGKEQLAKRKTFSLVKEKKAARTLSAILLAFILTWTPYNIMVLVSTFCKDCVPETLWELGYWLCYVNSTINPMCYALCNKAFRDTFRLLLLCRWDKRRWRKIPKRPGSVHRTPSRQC", "assay": "[35S]GTPγS binding to membranes", "type": "biochemical", "settings": "for EMAX of ACh on [^35S]GTPγS binding: fold of basal"}, "[3]": {"settings": "read-out: pKA of rapacuronium (converted)"}}}
{"molecule": "C=CC[N+]1([C@H]2C[C@H]3[C@@H]4CC[C@H]5C[C@H](OC(C)=O)[C@@H](N6CCCCC6)C[C@]5(C)[C@H]4CC[C@]3(C)[C@H]2OC(=O)CC)CCCCC1", "note": "[rapacuronium]", "values": [{"measurement": "BMAX of [^3H]NMS", "setting": "M2 muscarinic receptor [1]; + 10 μM rapacuronium", "result": "1.62 ± 0.14 fmol/μg of protein"}, {"measurement": "BMAX of [^3H]NMS", "setting": "M2 muscarinic receptor [1]; + 100 μM rapacuronium", "result": "1.66 ± 0.14 fmol/μg of protein"}, {"measurement": "pβ, cooperativity with ACh low affinity binding", "setting": "M2 muscarinic receptor [2]; M2, negative value = negative cooperativity", "result": "-1.52 ± 0.06"}, {"measurement": "Kd", "setting": "M2 muscarinic receptor [2]; [3]", "result": 2.75, "unit": "µM"}, {"measurement": "pα, cooperativity with [^3H]NMS", "setting": "M4 muscarinic receptor; M4, negative value = negative cooperativity", "result": "-1.40 ± 0.04"}, {"measurement": "Kd", "setting": "M4 muscarinic receptor; [3]", "result": 3.8, "unit": "µM"}, {"measurement": "decrease in affinity of [^3H]NMS (cooperativity)", "setting": "M5 muscarinic receptor; M5", "result": 35, "unit": "fold"}, {"measurement": "pα, cooperativity with [^3H]NMS", "setting": "M5 muscarinic receptor; M5, negative value = negative cooperativity", "result": "-1.54 ± 0.05"}, {"measurement": "Kd", "setting": "M5 muscarinic receptor; [3]", "result": 10.7, "unit": "µM"}, {"measurement": "effect on rate of [^35S]GTPγS binding", "setting": "M3 muscarinic receptor; 1 μM rapacuronium alone", "result": "slightly decreased"}, {"measurement": "increase in [^35S]GTPγS binding at 5 min incubation", "setting": "M3 muscarinic receptor; 10 μM ACh + 1 μM rapacuronium", "result": "~5", "unit": "fold"}, {"measurement": "observed rate (kobs) of [^35S]GTPγS binding", "setting": "M3 muscarinic receptor; 10 μM ACh + 1 μM rapacuronium", "result": "0.166 ± 0.013", "unit": "min⁻¹"}, {"measurement": "estimated [^35S]GTPγS equilibrium binding (Beq)", "setting": "M3 muscarinic receptor; 10 μM ACh with 1 μM rapacuronium", "result": "9,980 ± 120 cpm per well"}, {"measurement": "decrease in ACh EC50", "setting": "M1 muscarinic receptor; 0.1 μM rapacuronium", "result": 1.5, "unit": "fold"}, {"measurement": "decrease in ACh EC50", "setting": "M1 muscarinic receptor; 1 μM rapacuronium", "result": 4, "unit": "fold"}, {"measurement": "EMAX of ACh on [^35S]GTPγS binding", "setting": "M1 muscarinic receptor; + 0.1 μM rapacuronium", "result": "2.35 ± 0.12"}, {"measurement": "EMAX of ACh on [^35S]GTPγS binding", "setting": "M1 muscarinic receptor; + 1 μM rapacuronium", "result": "2.28 ± 0.12"}, {"measurement": "EMAX of ACh on [^35S]GTPγS binding", "setting": "M1 muscarinic receptor; + 10 μM rapacuronium", "result": "2.27 ± 0.11"}, {"measurement": "EMAX of rapacuronium on [^35S]GTPγS binding", "setting": "M1 muscarinic receptor; rapacuronium alone, normalized to absence of rapacuronium", "result": "0.76 ± 0.08"}, {"measurement": "EC50", "setting": "M1 muscarinic receptor; rapacuronium alone, read-out: pEC50 of rapacuronium on [^35S]GTPγS binding (converted)", "result": 50.1, "unit": "µM"}]}
